Here are results for 15 compounds from patent US8017791B2, “Tri-substituted 2-benzhydryl-5-benzylamino-tetrahydro-pyran-4-ol and 6-benzhydryl-4-benzylamino-tetrahydro-pyran-3-ol analogues, and novel, 3,6-disubstituted pyran derivatives” (Wayne State University, priority 2003, dated 2011).

“Also recorded” adds a separate entry of the source. Where two headings read alike, the source gives them in different places.

For one test, the target named is T1, NET (Rattus norvegicus).
T1 construct: from tissue
Briefly: NET uptake inhibition, [3H]NE. Format: biochemical. The settings on record: Table 4; rat brain.

Test [1] deals with T2, DAT (Rattus norvegicus, UniProt P23977).
T2 construct: rat striatum was the source for DAT, and cerebral cortex for SERT and NET; from tissue; P2 synaptosomal fraction for uptake
The test can be described thus: Inhibition of [3H]DA uptake by DAT into rat striatal synaptosomes. Particulars: for [3H]DA uptake/DAT binding: Table 3, ratio of IC50 values. It counts as biochemical. Here is the method: (§1) Biology. […] Briefly, rat striatum was the source for DAT, and cerebral cortex for SERT and NET. […] Test compounds were dissolved in dimethyl sulfoxide (DMSO) and diluted out in 10% (v/v) DMSO. […] At least five triplicate concentrations of each test compound were studied, spaced evenly around the IC50 value. For DAT uptake assays, uptake of 50 nM [^3H]DA into rat striatal synaptosomes was measured exactly as described by us previously. Briefly, rat striatal P2 membrane fractions were incubated with test compounds for 8 min followed by the additional presence of [^3H]DA for 4 min at 25?. […] Construction of inhibition curves and dissolvement of test compounds were as described above.

Test [2] has as its target T3, SERT (Rattus norvegicus, UniProt P31652).
T3 construct: rat striatum was the source for DAT, and cerebral cortex for SERT and NET; from tissue; host or cells: rat cerebral cortex
The test can be described thus: SERT uptake inhibition, [3H]5-HT. It counts as biochemical. The settings on record: for blockade of both SERT and NET (SNRI profile), in words: in vitro data.

For test [3], the target named is T2, DAT. Briefly: Inhibition of [3H]WIN 35,428 binding to DAT. The method, then:
as §1

Test [4] concerns the target NET (Rattus norvegicus, UniProt Q9WTR4). The test can be described thus: Inhibition of [3H]nisoxetine binding to NET. The method, then:
as §1

Test [5] relates to NET. Briefly: Inhibition of [3H]nisoxetine binding to NET. The settings on record: Table 3; selectivity ratio of IC50 values. Set-up: species or system rat. The method, then:
as §1

The target of test [6] is T3, SERT. The test can be described thus: Inhibition of [3H]citalopram binding to SERT. The settings on record: for SERT binding/DAT binding: Table 3, selectivity ratio of IC50 values. Here is the method: as §1
In test [7] the target is T2, DAT. The settings on record: Table 2; values marked b: See reference # 22; read-out: DAT binding, IC50, [3H]Win 35,428; cited from earlier work.
Test [8] has as its target T4, NET (Rattus norvegicus, UniProt Q63380).
T4 construct: from tissue
Briefly: NET uptake inhibition, [3H]NE. Format: biochemical. The settings on record: in vitro data, Table 4.

Where [9] appears, read: Table 4, rat brain, read-out: DAT uptake, IC50 [3H]DA.
Where [10] appears, read: Table 4, rat brain, read-out: SERT uptake, IC50 [3H]5-HT.
Where [11] appears, read: Table 4, rat brain, read-out: DAT binding, IC50, [3H]Win 35,428.
Where [12] appears, read: Table 2, average ± SEM, read-out: NET binding, IC50 [3H]nisoxetine.
Where [13] appears, read: Table 2, average ± SEM, read-out: DAT uptake, IC50 [3H]DA.
Where [14] appears, read: Table 2, average ± SEM, read-out: SERT binding, IC50 [3H]citalopram.

The term IC50 denotes the concentration at which inhibition is half-maximal.

T1 sequence (Q63380 1-617): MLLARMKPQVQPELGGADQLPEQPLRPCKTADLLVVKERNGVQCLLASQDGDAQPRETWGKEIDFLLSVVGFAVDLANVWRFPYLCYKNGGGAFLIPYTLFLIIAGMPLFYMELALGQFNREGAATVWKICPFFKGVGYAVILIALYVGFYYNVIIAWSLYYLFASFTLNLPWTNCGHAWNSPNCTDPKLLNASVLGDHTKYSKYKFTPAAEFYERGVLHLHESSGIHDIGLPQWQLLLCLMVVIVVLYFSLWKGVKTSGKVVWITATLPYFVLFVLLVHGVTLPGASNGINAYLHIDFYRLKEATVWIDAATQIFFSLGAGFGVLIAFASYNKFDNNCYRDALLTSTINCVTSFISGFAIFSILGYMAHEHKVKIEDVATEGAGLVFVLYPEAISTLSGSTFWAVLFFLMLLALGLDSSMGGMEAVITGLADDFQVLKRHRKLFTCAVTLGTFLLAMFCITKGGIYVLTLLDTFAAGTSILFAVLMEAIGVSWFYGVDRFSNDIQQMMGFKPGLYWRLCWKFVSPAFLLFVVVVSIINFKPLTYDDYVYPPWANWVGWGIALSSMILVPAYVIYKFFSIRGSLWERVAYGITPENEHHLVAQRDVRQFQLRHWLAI
T3 sequence (P31652 whole entry): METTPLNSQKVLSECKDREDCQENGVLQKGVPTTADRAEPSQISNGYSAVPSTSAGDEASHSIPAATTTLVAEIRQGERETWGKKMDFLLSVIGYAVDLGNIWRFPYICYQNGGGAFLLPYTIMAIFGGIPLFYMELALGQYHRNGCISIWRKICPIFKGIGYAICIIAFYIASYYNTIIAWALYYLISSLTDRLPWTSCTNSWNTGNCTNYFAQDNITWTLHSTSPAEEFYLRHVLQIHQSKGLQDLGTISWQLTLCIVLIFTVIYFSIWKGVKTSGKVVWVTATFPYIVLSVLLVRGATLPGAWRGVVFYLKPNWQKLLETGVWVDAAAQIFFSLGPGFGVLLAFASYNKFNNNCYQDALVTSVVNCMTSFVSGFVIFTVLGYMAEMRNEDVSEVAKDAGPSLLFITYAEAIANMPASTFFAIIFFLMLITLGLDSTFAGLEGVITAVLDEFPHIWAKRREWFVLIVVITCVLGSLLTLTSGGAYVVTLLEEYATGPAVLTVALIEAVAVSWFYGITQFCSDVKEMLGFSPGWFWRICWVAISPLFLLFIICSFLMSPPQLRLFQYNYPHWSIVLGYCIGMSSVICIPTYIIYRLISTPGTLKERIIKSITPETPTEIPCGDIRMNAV
T2 sequence (P23977 whole entry): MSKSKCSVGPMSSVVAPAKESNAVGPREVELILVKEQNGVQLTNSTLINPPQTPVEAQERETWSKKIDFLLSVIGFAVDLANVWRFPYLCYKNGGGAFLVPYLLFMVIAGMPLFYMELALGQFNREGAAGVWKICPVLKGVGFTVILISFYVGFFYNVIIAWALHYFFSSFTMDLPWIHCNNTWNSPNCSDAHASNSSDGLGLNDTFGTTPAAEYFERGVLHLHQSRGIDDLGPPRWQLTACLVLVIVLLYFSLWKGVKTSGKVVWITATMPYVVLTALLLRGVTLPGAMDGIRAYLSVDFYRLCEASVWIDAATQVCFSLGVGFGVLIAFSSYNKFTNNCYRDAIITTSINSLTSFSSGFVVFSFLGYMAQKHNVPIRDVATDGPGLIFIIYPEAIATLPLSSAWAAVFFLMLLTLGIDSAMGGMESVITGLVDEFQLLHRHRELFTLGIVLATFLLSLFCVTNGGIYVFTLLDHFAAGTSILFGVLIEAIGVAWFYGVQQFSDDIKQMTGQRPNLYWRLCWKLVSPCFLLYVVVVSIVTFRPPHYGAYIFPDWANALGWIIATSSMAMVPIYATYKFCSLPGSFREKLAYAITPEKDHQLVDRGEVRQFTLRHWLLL
T4 sequence (Q63380 1-617): as the sequence (Q63380 1-617) above

For `COc1ccc(CN[C@H]2C[C@H](C(c3ccccc3)c3ccccc3)OC[C@H]2O)cc1` [(+)-29g, (3S,4S,6R)-6-benzhydryl-4-(4-methoxy-benzylamino)-tetrahydropyran-3-ol], the half-maximal inhibitory concentration (IC50) against NET (Rattus norvegicus) came out at 1840 ± 580 nM; on DAT [1] (setting [9]) it was 2670 ± 260 nM; on SERT [2] (setting [10]), 3810 ± 460 nM; on DAT [3] (setting [11]), 3750 ± 620 nM.
As for `O[C@H]1C[C@H](C(c2ccccc2)c2ccccc2)OC[C@@H]1NCCc1ccc(F)cc1` [(+)-29c, (2R,4S,5S)-2-benzhydryl-5-[2-(4-fluoro-phenyl)-ethylamino]-tetrahydropyran-4-ol], the 50% inhibitory concentration (IC50) against NET (Rattus norvegicus) came out at 77.3 ± 3 nM; at DAT [1] (setting [9]) it was 218 ± 20 nM; on SERT [2] (setting [10]) it was 2950 ± 380 nM; at DAT [3] (setting [11]), 443 ± 52 nM.
With `Fc1ccc(CN[C@H]2CC[C@@H](C(c3ccccc3)c3ccccc3)OC2)cc1` (relative stereo) [Compound 16b, Cis-(6-benzhydryl-tetrahydropyran-3-yl)-(4-fluoro-benzyl)-amine], the IC50 was 232 ± 46 nM on NET [4] (setting [12]), 146 ± 36 nM at DAT [1] (setting [13]), 1860 nM at SERT [6] (setting [14]) and 163 nM on DAT [7]. For the same compound, the “NET binding/DAT binding” value with NET [5] worked out at 1.4. The “[3H]DA uptake/DAT binding” value on DAT [1] stood at 0.96. Further, the “SERT binding/DAT binding” value on SERT [6] is on record as 11.4.
With `COc1ccc(CN[C@@H]2CO[C@H](C(c3ccccc3)c3ccccc3)C[C@H]2O)c(OC)c1` [(−)-29e, (2S,4R,5R)-2-benzhydryl-5-(2,4-dimethoxy-benzylamino)-tetrahydropyran-4-ol], the half-inhibitory concentration (IC50) is 115 ± 14 nM at NET (Rattus norvegicus), 710 ± 130 nM on DAT [1] (setting [9]), 24 ± 4 nM at SERT [2] (setting [10]) and 1060 nM at DAT [3] (setting [11]). In addition, the “blockade of both SERT and NET (SNRI profile), in words” value on SERT [2] (Table 4) is “dual transport blockers; also recorded: potent blockers for both SERT and NET”.
With `O[C@@H]1C[C@@H](C(c2ccccc2)c2ccccc2)OC[C@H]1NCCc1ccc(F)cc1` [(−)-29c, (2S,4R,5R)-2-benzhydryl-5-[2-(4-fluoro-phenyl)-ethylamino]-tetrahydropyran-4-ol], the IC50 against NET (Rattus norvegicus) came to 439 ± 14 nM; on DAT [1] (setting [9]), 427 ± 67 nM; on SERT [2] (setting [10]), 3570 ± 140 nM; at DAT [3] (setting [11]) it was 1050 ± 40 nM.
With `O[C@@H]1CO[C@@H](C(c2ccccc2)c2ccccc2)C[C@@H]1NCc1ccccc1` [(+)-29h, (3S,4S,6R)-6-benzhydryl-4-benzylamino-tetrahydropyran-3-ol], the 50% inhibitory concentration (IC50) at NET (Rattus norvegicus) was determined as 3220 ± 570 nM; on DAT [1] (setting [9]), 962 ± 97 nM; on SERT [2] (setting [10]), 4420 ± 410 nM; at DAT [3] (setting [11]) it was 1250 ± 100 nM.
Regarding `O=[N+]([O-])c1ccc(CN[C@H]2CC[C@@H](C(c3ccccc3)c3ccccc3)OC2)cc1` (relative stereo) [Compound 16d, Cis-(6-benzhydryl-tetrahydropyran-3-yl)-(4-nitro-benzyl)-amine], the “potency in inhibiting binding versus uptake, in words” value on DAT [1] (DA uptake assay compared with DAT binding) was “three fold higher potency in inhibiting binding than uptake”. Further, the values for the IC50 on DAT [1] (setting [13]), at DAT [7] and at DAT [3] (read-out: IC50 at the DAT) were 102 ± 7 nM, 38.3 nM and 38.3 nM, respectively. Moreover, the “[3H]DA uptake/DAT binding” value on DAT [1] was 2.7. In addition, at DAT [3], the “activity at DAT, in words” value is recorded as “the most active for the DAT”.
Regarding `O[C@H]1C[C@H](C(c2ccccc2)c2ccccc2)OC[C@@H]1NCc1ccc(F)cc1` [(+)-29b, (2R,4S,5S)-2-benzhydryl-5-(4-fluoro-benzylamino)-tetrahydro-pyran-4-ol], the IC50 on NET (Rattus norvegicus) is 1130 ± 580 nM; on DAT [1], 440 ± 30 nM; at SERT [2], 5560 ± 640 nM; at DAT [3], 1030 ± 120 nM.
Regarding `O[C@@H]1C[C@@H](C(c2ccccc2)c2ccccc2)OC[C@H]1NCc1ccc(F)cc1` [(−)-29b, (2S,4R,5R)-2-benzhydryl-5-(4-fluoro-benzylamino)-tetrahydro-pyran-4-ol], the “selectivity for the NET (NRI profile), in words” value was “selective blockers for NET” on NET [8] and “more selective for the NET” on NET [8] (listed as (−)29b). Further, the half-maximal inhibitory concentration (IC50) on NET (Rattus norvegicus) turned out to be 13.3 ± 1 nM; at DAT [1], 169 ± 20 nM; against SERT [2], 676 ± 33 nM; on DAT [3], 308 ± 25 nM.
As to `Fc1ccc(CN[C@H]2CC[C@H](C(c3ccccc3)c3ccccc3)OC2)cc1` (relative stereo) [Compound 16a, trans-2-diphenylmethyl-5-(4-fluorobenzylamino)-tetrahydropyran], the 50% inhibitory concentration (IC50) at NET [4] (Table 1, read-out: Inhibition of [3H]nisoxetine binding to NET, IC50) is 12700 nM; at NET [4] (setting [12]) it was 12700 nM; at SERT [6] (Table 1, read-out: Inhibition of [3H]citalopram binding to SERT, IC50), 8410 nM; at SERT [6] (setting [14]), 8410 nM; at DAT [7], 313 nM; at DAT [3] (Table 1, rat striatum, read-out: Inhibition of [3H]Win 35,428 binding to DAT IC50) it was 313 ± 71 nM. The “NET binding/DAT binding” value with NET [5] is 40.6. Moreover, the “SERT binding/DAT binding” value at SERT [6] was 26.9. For the same compound, the “activity at DAT, in words” value at DAT [3] was “much weaker at DAT”.
For the compound `c1ccc(C(c2ccccc2)C2CCC(NCc3cc4ccccc4[nH]3)CO2)cc1` (stereo not drawn) [Compound 16g, Cis-(6-benzhydryl-tetrahydropyran-3-yl)-(2-indole-methyl)-amine], the IC50 was found to be 401 nM on NET [4] (read-out: IC50 for the NET), 135 ± 47.5 nM at DAT [1] (setting [13]), 1640 nM on SERT [6] (setting [14]) and 227 nM on DAT [3] (read-out: IC50 at the DAT). The “NET binding/DAT binding” value in the test with NET [5] amounted to 1.8. The “[3H]DA uptake/DAT binding” value at DAT [1] turned out to be 0.60. On SERT [6], the “SERT binding/DAT binding” value was determined as 7.2. For the same compound, on DAT [3], the “fold more active at DAT compared to the 3-substituted 16f” value was determined as 3.5 fold.
For the compound `COc1ccc(CN[C@@H]2C[C@@H](C(c3ccccc3)c3ccccc3)OC[C@@H]2O)cc1` [(−)-29g, (3R,4R,6S)-6-benzhydryl-4-(4-methoxy-benzylamino)-tetrahydro-pyran-3-ol], the IC50 was determined as 765 ± 34 nM against NET (Rattus norvegicus), 822 ± 120 nM on DAT [1] (setting [9]), 1070 ± 100 nM at SERT [2] (setting [10]) and 771 ± 86 nM at DAT [3] (setting [11]).
As for `O[C@@H]1CO[C@H](C(c2ccccc2)c2ccccc2)C[C@H]1NCc1ccccc1` [(−)-29h, (3S,4R,6S)-6-benzhydryl-4-benzylamino-tetrahydropyran-3-ol], the concentration for half-maximal inhibition (IC50) was found to be 336 ± 33 nM on NET (Rattus norvegicus), 2610 ± 140 nM on DAT [1] (setting [9]), 10000 nM at SERT [2] (setting [10]) and 4640 ± 1030 nM at DAT [3] (setting [11]).
As to `COc1cc(CN[C@@H]2CO[C@H](C(c3ccccc3)c3ccccc3)C[C@H]2O)cc(OC)c1` [(−)-29f, (2S,4R,5R)-2-benzhydryl-5-(3,5-dimethoxy-benzylamino)-tetrahydropyran-4-ol], the IC50 stood at 108 ± 11 nM on NET (Rattus norvegicus), 135 ± 3 nM on DAT [1] (setting [9]), 25.4 ± 2 nM on SERT [2] (setting [10]) and 298 ± 29 nM on DAT [3] (setting [11]). Also, the “blockade of both SERT and NET (SNRI profile), in words” value on SERT [2] (Table 4) was “potent blockers for both SERT and NET”; at SERT [2] (Table 4, listed as (−)29f), “dual transport blockers”.
On to `Clc1ccc(CN[C@H]2CC[C@@H](C(c3ccccc3)c3ccccc3)OC2)cc1Cl` (relative stereo) [Compound 16i, Cis-(6-benzhydryl-tetrahydropyran-3-yl)-(3,4-dichloro-benzyl)-amine], for which the IC50 was 144 ± 25 nM on NET [4] (setting [12]); 880 ± 136 nM at DAT [1] (setting [13]); 780 ± 84 nM on SERT [6] (setting [14]); 400 ± 31 nM on DAT [3] (Table 2, average ± SEM of three to eight experiments, read-out: DAT binding, IC50, [3H]Win 35,428). The “NET binding/DAT binding” value in the test with NET [5] worked out at 0.36. Besides, the “SERT binding/DAT binding” value on SERT [6] worked out at 1.9.
